Experimental data published in US20020055528A1, “Artemisinin analogs having antimalarial, antiproliferative, and antitumor activities and chemoselective methods of making the same” (priority 1999, published 2002).
Read-outs that look alike come from different tables or passages of the source.

Legend:
[1] = system: chloroquine-sensitive P. falciparum (NF54); test: Antimalarial screening, [3H]hypoxanthine incorporation; type: cell-based, Plasmodium falciparum
Experimental: Activity was determined by measuring the incorporation of [^3H]hypoxanthine, by the methods of Desjardins and Milhouse, with the following modifications, see […].; Haynes, […]. Antimicrob. Agents Chemother., 16: 710 (1979); Milhous, W. K.; Weatherly, […].; Antimicrob. Agents Chemother., 27: 525 (1985). […] Calbiochem #391338), 27 mM NaHCO3 (Gibco BRL # 11810-025), and 10% heat-inactivated human type O+serum (Interstate Blood Bank, Inc.), under 3% O2, 4% CO2, and 93% N2-Parasitemia was maintained at 0.05-3% and doubling time at approximately 15 hours by twice weekly change of medium and replenishment with fresh erythrocytes. […] Sigma-Aldrich #27,043-1). DMSO solutions were diluted 500-fold in medium, serially diluted in 0.2% DMSO in medium (to maintain constant solvent concentration), then 100 μL aliquots were pipetted into microtiter plate wells (Costar3595). […] Cells were harvested (Brandel MB-48R) onto GF-C glass filters (Brandel). The filters were washed five times with 3 mL water per sample spot, dried under a heat lamp, and counted (Beckman Model LS-6500) in scintillation cocktail (ICN Cytoscint). Decays per minute (dpm) values were downloaded and analyzed (Power Macintosh 7200/90; Microsoft Excel 5.0), to yield the mean and standard deviation at each drug concentration.

[2] = in vivo; cited from earlier work
[3] = system: P. berghei; conditions: P. berghei-infected mice; cited from earlier work
[4] = rat liver microsomes; cited from earlier work
[5] = system: murine keratinocyte cell line PE; test: Growth inhibition of PE cells, MTT assay; type: cell-based; conditions: 96 hours
Experimental: To determine the inhibitory effect of the compositions of the present invention on cell proliferation, screening assays were performed on a murine keratinocyte cell line PE. Cell line PE was chosen for its particular sensitivity to the induction of omithine decarboxylase (ODC) activity by the extensively characterized tumor promoter TPA. Cell line PE was derived from a papilloma-induced in female SENCAR mice by a standard skin initiation/promotion protocol, see Yuspa, S. H., et al., Carcinogenesis, 7:949-958 (1986). PE cell culture medium consisted of Eagle's minimal essential medium without calcium chloride (Whittaker Bioproducts, Walkersville, Mass.) supplemented with 8% chelexed fetal calf serum and 1% antibiotic-antimycotic (Gibco BRL) and the addition of CaCI2 to 0.05 mM Ca^++
MTT [3-(4,5-dimethylthiazol-2-yl)-2,5-diphenyltetraxolium bromide] was purchased from Sigma Chemical Co. (St. Louis, Mo.), and TPA was supplied by L.C. Services (Woburn, Mass.). L-[^14C]omithine ([…]) was from Amersham/Searle Corp. (Arlington Heights, Ill.). Chemical solvents used in all assays of biological activity were of the highest grade commercially available.
Growth curves, shown in FIG. 5, for PE cells treated with calcitriol and the C-10 carbon-substituted dimers VII-f, VII-g and VII-h generated by assay for the reduction of the tetrazolium-based compound MTT, see Charmichael, et al., Cancer Res., 47:936-942 (1987). A mitochondrial dehydrogenase reduces MTT to a blue formazan product with an absorbance maximum of 505 nm in DMSO; the number of viable cells can thus be determined spectrophotometrically. PE cells were seeded at a density of 5,000 cells/well in 50 IL of medium into 96-well microtiter plates. Twelve hours later, the medium was removed, and cells were treated with 100 μL of fresh medium into which the appropriate amount of calcitriol or analog dissolved in dimethyl sulfoxide (DMSO) had been added, with the concentration of DMSO held constant at 0.1 %. […] At 24-hour intervals following the initial treatment of the cells with compounds, 0.1 mg (50 μL of a 2 mg/mL solution) of MTT was added to each well. After 4 hours, the MTT was removed and DMSO added to dissolve the blue formazan dye. Using a microtiter plate reader, the A505 was then determined and cell number calculated from blank-subtracted absorbance values.

[6] = chloroquine-sensitive P. falciparum (NF54), read-out: IC50
[7] = Plasmodium falciparum, NF54, chloroquine-sensitive P. falciparum (NF54), read-out: IC50

10-(Benzhydryl)anhydroartemisinin [I-5]
IC50 [1, 6]: 4.5 nM

CC1=C(c2nc3ccccc3s2)OC2OC3(C)CCC4C(C)CCC1C24OO3 (stereo not drawn) [Benzo-4, 10-(2′-Benzothiazolyl)anhydroartemisinin]
IC50 [1, 6]: 7.8 nM

CC1=C(C=Cc2ccccc2)OC2OC3(C)CCC4C(C)CCC1C24OO3 (stereo not drawn) [E-VII-c, 10-(Styryl)anhydroartemisinin]
IC50 [1, 6]: 16 nM

CC1=C(C=Cc2ccc([N+](=O)[O-])cc2)OC2OC3(C)CCC4C(C)CCC1C24OO3 (stereo not drawn) [E-VII-d, 10-(p-Nitrostyryl)anhydroartemisinin]
IC50 [1, 6]: 11 nM

CC1=C(C(=O)c2ccccc2)O[C@@H]2O[C@@]3(C)CC[C@H]4[C@H](C)CC[C@@H]1[C@@]24OO3 [I-4, 10-Benzoylanhydroartemisinin]
IC50 [1, 7]: 4.6 nM

C[C@H]1[C@@H](O)O[C@@H]2O[C@@]3(C)CC[C@H]4[C@H](C)CC[C@@H]1[C@@]24OO3 [II-1, dihydroartemisinin]
half-life in plasma [2]: less than two hours

CC1=CO[C@@H]2O[C@]3(C)CC[C@H]4[C@H](C)CC[C@@H]1[C@@]24OO3 [III]
activity in words [3]: inactive

CC1=C(c2nccs2)O[C@@H]2O[C@@]3(C)CC[C@H]4[C@H](C)CC[C@@H]1[C@@]24OO3 [Ib, 10-(2′-Thiazolyl)anhydroartemisinin]
IC50 ([1]; Plasmodium falciparum, NF54): 14 nM

CC1=C(C=O)O[C@@H]2O[C@@]3(C)CC[C@H]4[C@H](C)CC[C@@H]1[C@@]24OO3 [Ie, 10-Formylanhydroartemisinin]
melting point: 115 to 117 °C | IC50 [1, 7]: 37 nM

C=CC1=C(C)C2CCC(C)C3CCC4(C)OOC23C(O1)O4 (stereo not drawn) [VII-a, 10-Vinylanhydroartemisinin]
IC50 [1, 6]: 28 nM

CC1=C(C=Cc2ccccc2)OC2OC3(C)CCC4C(C)CCC1C24OO3 (stereo not drawn) [Z-VII-C, 10-(Styryl)anhydroartemisinin]
IC50 [1, 6]: 8.1 nM

CC1=C(C=Cc2ccc([N+](=O)[O-])cc2)OC2OC3(C)CCC4C(C)CCC1C24OO3 (stereo not drawn) [Z-VII-d, 10-(p-Nitrostyryl)anhydroartemisinin]
IC50 [1, 6]: 10 nM

CCO[C@H]1O[C@@H]2O[C@@]3(C)CC[C@H]4[C@H](C)CC[C@@H]([C@H]1C)[C@@]24OO3 [arteether]
conversion into dihydroartemisinin (II-1) [4]: rapidly converted

C=C1/C(=C\C=C2/CCC[C@]3(C)[C@@H]([C@H](C)CCCC(C)(C)O)CC[C@@H]23)C[C@@H](O)C[C@@H]1O [calcitriol, 1α, 25-dihydroxyvitamin D3, reference compound]
viability of treated cells by trypan blue exclusion [5]: identical to control cells
